Assays:
IFNβ promoter = test: IFNβ reporter induced by over-expression of RIG-I, MAVS or TBK1 in 293T cells; format: cell-based, human
293T cells [1] = test: Flow cytometry analysis of apoptosis (Annexin V / 7-AAD); format: cell-based, human; details: bufalin 1 μM 8 hours; staurosporine 4 μM 4 hours
Description: (§1) The cells were also exposed to 0.1% Triton X-100 for 1 hr before the viability assay as a control (FIG. 16E). Data represent mean values±s.d. (n=3). […] Cells were harvested and washed, then stained with Allophycocyanin (APC) conjugated Annexin V and 7-AAD for 15 minutes and subjected to flow cytometry analysis. The number in each graph is the percentile of Annexin V or 7-AAD positive populations. […] Total protein lysates were prepared and separated on SDS-PAGE for Western blot analysis of PARP1, cleaved PARP1, cleaved Caspase3, LC3B, ATP1a1, and beta-actin expression.
Treated cells and untreated control cells were harvested and washed with PBS, and stained with APC conjugated Annexin V and 7-AAD (both from BD Biosciences) in Annexin V binding buffer (10 mM HEPES, pH 7.4, 140 mM NaCl, 2.5 mM CaCl2) for 15 minutes at room temperature, and then subjected to flow cytometry analysis on a FACSCalibur (BD Biosciences).
Cells were harvested and washed, then stained with Allophycocyanin (APC) conjugated Annexin V and 7-AAD for 15 minutes and subjected to flow cytometry analysis. […] 11 for sturosporine.

mice = test: LPS induced lethality in mice; format: in vivo; details: 15 μg/mouse i.p. 30 min before LPS 80 mg/kg i.p.; 4 days
[2] = test system: virus inducible genes in 293T cells; test: Microarray and RT-PCR of gene expression in 293T cells treated with bufalin and/or SeV; format: cell-based, human
293T cells [3] = test: Western blot analysis of apoptosis and autophagy; format: cell-based, human; details: 8 hours, bufalin 1 nM to 10 μM, staurosporine 4 μM
Description: as §1
Apoptosis and autophagy were also analyzed by Western blots. […] Total protein lysates were prepared and separated on SDS-PAGE for Western blot analysis of PARP1, cleaved PARP1, cleaved Caspase3, LC3B, ATP1a1, and beta-actin expression.

MEFs = test: RT-PCR of IFNβ induction in mouse embryonic fibroblasts (MEFs); format: cell-based; details: 1 uM; SeV, dsRNA, dsDNA
Source text: As discussed above, the mouse ATP1a1 protein is not sensitive to cardiac glycoside binding.

[4] = test system: endogenous TNF target genes; test: RT-PCR of TNF induced gene expression in 293T cells; format: cell-based, human; details: 6 hrs
IFN signaling = test: IFN induced gene expression in Hela cells; format: cell-based, human; details: 1 μM

C[C@]12CC[C@H](O)C[C@H]1CC[C@@H]1[C@H]2CC[C@]2(C)[C@@H](c3ccc(=O)oc3)CC[C@]12O [Bufalin]
IFNβ reporter induction by MAVS over-expression (IFNβ promoter): no effect | IFNβ reporter induction by TBK1 over-expression (IFNβ promoter): little effect | virus induction of the IFNβ reporter when RIG-I was over-expressed (IFNβ promoter): only slightly reduced | Percentile of Annexin V or 7-AAD positive populations (293T cells [1]): 1.95 | lethality induced by a high dose of LPS (mice): partially reduce | IFNβ induction in cells preinfected with virus ([2]; SeV 1.5 hours, then 1 μM for 6 hours): strongly inhibits | induction of virus-induced genes (IFNβ, IL-8, IFIT1-3, ISG15, OASL, CXCL10, CCL5) ([2]; bufalin plus SeV, 8 hrs): completely blocked | cleavage products of PARP1 and Caspase3 (indication of apoptosis) (293T cells [3]): not observed | induction of LC3B-II (marker of autophagy) (293T cells [3]; BFA 100 nM): not observed | induction of IFNβ gene by various inducers in MEFs (MEFs): little effects | expression of endogenous TNF target genes [4]: significantly inhibited | IFN induction of Stat1 and ISG15 genes (IFN signaling): no effect | IFN induced expression of Cxcl10 and RIG-I genes (IFN signaling; IFN 1000 U/ml, 6 hours): weakly inhibited

Source: patent US20140088056A1, “CARDIAC GLYCOSIDES ARE POTENT INHIBITORS OF INTERFERON-BETA GENE EXPRESSION” (priority 2010, published 2014)
